Counter-ions that a name gives are not always drawn. Like-named read-outs stand apart in the source and are kept apart here.
Key:
[1] = test system: SULT2B1b-mediated CS production in E0771-SULT cells; test: CS production inhibitory effect in E0771-SULT cells (LC/MS/MS quantification of CS); type: cell-based, mouse; conditions: Mus musculus; for activity at 10 µM / activity at 20 µM: 24 h; for activity at 10 µM: relative to control (100%); for activity at 20 µM: relative to control without compound (100%); for IC50: read-out: IC50 value (CS production)
Experimental: CS in each human cancer tissue sample was quantified by a method described in NPL 2. To monitor the amounts of CS and/or oxysterol generated in E0771, 3LL, EG.7-OVA, and MC38 cells irrespective of the presence or absence of SULT2B1b expression, cells of each type were seeded in a 6-well plate at 5×10^5 cells/well, and the culture supernatant and cell pellet were collected after 24 hours. Subsequently, deuterium-labeled internal standard (IS) compounds (d7-CS [[…]] and d6-25-hydroxycholesterol) were added to fractions of the culture supernatant and cell pellet, each of which was subjected to extraction with 1 mL of extraction solvent (methanol/chloroform/water=5:2:2 [v/v/v]) to extract CS and oxysterol from the culture supernatant or cell pellet.
Each sample was vigorously mixed with a vortex for 1 minute, and then ultrasonicated for 5 minutes. Thereafter, the sample was centrifuged at 16,000×g and 4° C. for 5 minutes, and the supernatant (700 μl) was collected in a clean tube. Into this, 235 μl of chloroform and 155 μl of water were added and mixed, and the resultant was then subjected to vortexing followed by centrifugation to separate into an aqueous layer and an organic layer. Subsequently, 200 μl of the lowermost layer was dried under a nitrogen flow.
The dried sample was dissolved in 50 μl of methanol, and CS and oxysterol therein were quantified by liquid chromatography-tandem mass spectrometry (LC/MS/MS) with a triple quadrupole mass spectrometer (LCMS-8060; Shimadzu Corporation) equipped with an electrospray ionization (ESI) ion source in a multiple reaction monitoring (MRM) mode.
• Column: Inertsil ODS-4 (2.1×150 mm; particle size: 3 μm; GL Sciences Inc.) • Column temperature: 40° C. • Flow rate: 0.3 ml/min • Mobile phase: (A) water/acetonitrile (1:2, v/v) containing 5 mM ammonium acetate (B) Methanol/Isopropanol (1:19, v/v) Containing 5 mM Ammonium Acetate • Gradient curve: 0 min→22 min: (B) 0%→100%, • 22 min→27 min: (B) 100%, • 27 min→27.1 min: (B) 100%→0%, • 27.1 min→30 min: (B) 0% • Injection volume: 5 μl • Mass spectrometry mode: positive and negative ion modes • Electrospray voltage: 4 kV in positive ion mode, −3.5 kV in negative ion mode • Nebulizer gas flow rate: 3.0 L/min • Drying gas flow rate: 10.0 L/min • Desolvation temperature: 250° C. • Heat block temperature: 400° C. • Detector voltage: 2.16 kV • Used were MRM mode and 2 msec of dwell time per channel.
Absolute CS and oxysterol contents were calculated from calibration curves. MRM calibration curves were prepared with chromatographic peak areas for the analytes relative to peak areas for internal standards through three times of analysis for standard solutions.
The CS production effects of test compounds (compounds 1 to 19, 21, 23, 25, and 27 to 32) were evaluated with the mouse breast cancer cell line E0771 expressing SULT2B1b (E0771-SULT cells).
Specifically, as in the above description in experimental procedure (12), E0771-SULT cells were seeded in a 6-well plate at a proportion of 5×10^5 cells/well, and cultured in the presence or absence (control) of each test compound for 24 hours. After culturing, CS generated in E0771-SULT cells was quantified by LC/MS/MS according to the description in experimental procedure (12). The CS production capacity (% activity) of cells cultured in the presence of each test compound was evaluated from the percentage relative to the CS production level (control) (100%) in E0771-SULT cells cultured in the absence of the test compound, and the CS production inhibitory effect of the test compound was evaluated.

[2] = target: T1, recombinant human SULT2B1b protein (Homo sapiens, UniProt O00204); test: SULT assay (in vitro SULT2B1b enzymatic activity measurement); type: biochemical; conditions: for activity at 200 µM: read-out: in vitro SULT2B1b assay % activity at 200 μM
T1 sequence (O00204 1-365): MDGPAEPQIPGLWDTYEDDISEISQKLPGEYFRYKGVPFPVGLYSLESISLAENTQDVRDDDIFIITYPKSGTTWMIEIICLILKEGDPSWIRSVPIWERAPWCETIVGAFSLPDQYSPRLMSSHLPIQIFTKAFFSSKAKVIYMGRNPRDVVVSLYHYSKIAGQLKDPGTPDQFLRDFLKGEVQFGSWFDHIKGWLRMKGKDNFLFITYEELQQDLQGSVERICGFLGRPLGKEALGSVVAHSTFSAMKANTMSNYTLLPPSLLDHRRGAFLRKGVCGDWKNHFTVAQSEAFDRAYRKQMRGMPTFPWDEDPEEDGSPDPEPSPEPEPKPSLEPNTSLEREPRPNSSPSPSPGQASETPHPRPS
Experimental: For screening for a SULT2B1b inhibitor, enzymatic activity measurement for SULT2B1b was carried out by a method described in a previous report (NPL 2) with slight modifications.
The reaction solution (50 μl) was composed of 1 to 5 μg of recombinant human SULT2B1b protein, 10 μM [^3H]cholesterol (approximately 4,000 dpm/pmol), 10 mM Tris-HCl (pH 7.5, containing 5 mM MgCl2) containing 0.1 mM 3′-phosphoadenosine 5′-phosphosulfate (PAPS), 0.2 mM 2-hydroxypropyl-β-cyclodextrin, and 5% (v/v) ethanol. Recombinant human SULT2B1b protein was pre-incubated with 1 μl of a test compound (final concentration: 40 or 200 μM) or DMSO (control) at room temperature for 15 minutes, 2 mM PAPS (2.5 μl) was then added to initiate reaction, the resultant was reacted at 37° C. for 15 minutes, and 0.8 ml of ethanol was added to terminate the reaction.
The solution after the reaction was subjected to thin-layer chromatography (TLC) for separation, and then to a liquid scintillation counter to quantify radiolabeled CS.
From the percentage to the amount ([…]) of radiolabeled CS generated through reaction in the absence of the test compound (DMSO) (control), the SULT2B1b activity (% activity) of SULT2B1b protein in the presence of the test compound was evaluated, and the effect of the test compound to inhibit SULT2B1b-mediated CS production (CS production inhibitory effect) was evaluated.
In enzyme assay, SULT assay was performed with use of cholenoic acid as a compound to be tested at different cholesterol and PAPS concentrations (wherein 0.5 to 1 μg of recombinant human SULT2B1b protein was used, the preincubation time and reaction time were each 10 minutes), and the results were fitted to the Michaelis-Menten equation by using Prism 9 (GraphPad Software, Inc.) to perform enzyme kinetic analysis for the inhibition by cholenoic acid.
SULT assay was performed for the compounds as test compounds by the method described in (14) of “II. Experimental procedure” in Experiment Example 1 to evaluate the SULT2B1b inhibitory effects of the compounds.

[3] = read-out: CS production % activity at 10 μM, E0771-SULT cells, 24 hours, test compound 10 μM (Table 1)
[4] = read-out: CS production % activity at 10 μM, E0771-SULT cells, 24 hours, third concentration column of Table 1, head again printed 10 μM
[5] = read-out: CS production % activity at 20 μM, E0771-SULT cells, 24 hours, test compound 20 μM
[6] = test compound 200 μM, relative to DMSO control (100%)

Structure (SMILES)	activity at 10 µM ([1]; E0771-SULT cells, 24 hours, test compound 10 μM (Table 1), read-out: CS production % activity at 10 μM) [%]	activity at 20 µM ([1]; E0771-SULT cells, 24 hours, test compound 20 μM, read-out: CS production % activity at 20 μM) [%]	activity at 10 µM ([1]; E0771-SULT cells, 24 hours, third concentration column of Table 1, head again printed 10 μM, read-out: CS production % activity at 10 μM) [%]	IC50 ([1]; E0771-SULT cells) [µM]	activity at 200 µM [2] [%]	activity at 10 µM [1, 3] [%]	activity at 10 µM [1, 4] [%]	activity at 20 µM [1, 5] [%]	IC50 [1] [µM]	activity at 200 µM [2, 6] [%]	IC50 ([2]; recombinant human SULT2B1b, read-out: IC50 value (enzyme assay)) [µM]
COC(=O)CC[C@@H](C)[C@H]1CC[C@H]2[C@@H]3CC=C4C[C@@H](OC(=O)C(F)(F)F)CC[C@]4(C)[C@H]3CC[C@]12C [Compound 4, methyl (R)-4-((3S,8S,9S,10R,13R,14S,17R)-10,13-dimethyl-3-(2,2,2-trifluoroacetoxy)-2,3,4,7,8,9,10,11,12,13,14,15,16,17-tetradecahydro-1H-cyclopenta[a]phenanthren-17-yl)pentanoate]	79.2	49.9	104	20	13.6						
COC(=O)CC[C@@H](C)[C@H]1CC[C@H]2[C@@H]3CC=C4C[C@@H](O)CC[C@]4(C)[C@H]3CC[C@]12C [Compound 3, methyl (R)-4-((3S,8S,9S,10R,13R,14S,17R)-3-hydroxy-10,13-dimethyl-2,3,4,7,8,9,10,11,12,13,14,15,16,17-tetradecahydro-1H-cyclopenta[a]phenanthren-17-yl)pentanoate]					19	48.1	61.4	56.8	17.3		
CO[C@H]1CC[C@@]2(C)C(=CC[C@H]3[C@@H]4CC[C@H]([C@H](C)CCC(=O)O)[C@@]4(C)CC[C@@H]32)C1 [Compound 6, (R)-4-((3S,8S,9S,10R,13R,14S,17R)-3-methoxy-10,13-dimethyl-2,3,4,7,8,9,10,11,12,13,14,15,16,17-tetradecahydro-1H-cyclopenta[a]phenanthren-17-yl)pentanoic acid]						74.5	80.7	70.3	32.4	22.9	
CCCCNC(=O)CC[C@@H](C)[C@H]1CC[C@H]2[C@@H]3CC=C4C[C@@H](OC(=O)C(F)(F)F)CC[C@]4(C)[C@H]3CC[C@]12C [Compound 8, (3S,8S,9S,10R,13R,14S,17R)-17-((R)-5-(butylamino)-5-oxopentan-2-yl)-10,13-dimethyl-2,3,4,7,8,9,10,11,12,13,14,15,16,17-tetradecahydro-1H-cyclopenta[a]phenanthren-3-yl 2,2,2-trifluoroacetate]						70.6	83.6	60.2	42.5	10.7	
C[C@H](CCC(=O)N(Cc1ccccc1)Cc1ccccc1)[C@H]1CC[C@H]2[C@@H]3CC=C4C[C@@H](OC(=O)C(F)(F)F)CC[C@]4(C)[C@H]3CC[C@]12C [Compound 7, (3S,8S,9S,10R,13R,14S,17R)-17-((R)-5-(dibenzylamino)-5-oxopentan-2-yl)-10,13-dimethyl-2,3,4,7,8,9,10,11,12,13,14,15,16,17-tetradecahydro-1H-cyclopenta[a]phenanthren-3-yl 2,2,2-trifluoroacetate]						59	74.6	57.8	17.3	6.4	
CC(=O)OC1CCC2(C)C(=CCC3C2CCC2(C)C(C(C)CCC(=O)O)CCC32)C1 (stereo not shown) [Compound 17, 3-acetoxy-5-cholenoic acid]						43.7	44.9	52.4	7	66.4	186
CC(=O)C1=CC[C@H]2[C@@H]3CC[C@H]4C[C@H](OC(=O)CCN5CCOCC5)CC[C@]4(C)[C@H]3CC[C@]12C [Compound 16, (3R,5S,8R,9S,10S,13S,14S)-17-acetyl-10,13-dimethyl-2,3,4,5,6,7,8,9,10,11,12,13,14,15-tetradecahydro-1H-cyclopenta[a]phenanthren-3-yl3-morpholinopropanoate]						49.9	55.7	42.3	9.6		
C#CCOCCNC(=O)CC[C@@H](C)[C@H]1CC[C@H]2[C@@H]3CC=C4C[C@@H](OS(=O)(=O)O)CC[C@]4(C)[C@H]3CC[C@]12C [Compound 21, (3S,8S,9S,10R,13R,14S,17R)-10,13-dimethyl-17-((R)-5-oxo-5-((2-(prop-2-yn-1-yloxy)ethyl)amino)pentan-2-yl)-2,3,4,7,8,9,10,11,12,13,14,15,16,17-tetradecahydro-1H-cyclopenta[a]phenanthren-3-yl sulfate]								85.7			
C[C@H](CCC(=O)O)[C@H]1CC[C@H]2[C@@H]3CC=C4C[C@@H](OC(=O)C(F)(F)F)CC[C@]4(C)[C@H]3CC[C@]12C [Compound 2, (R)-4-((3S,8S,9S,10R,13R,14S,17R)-10,13-dimethyl-3-(2,2,2-trifluoroacetoxy)-2,3,4,7,8,9,10,11,12,13,14,15,16,17-tetradecahydro-1H-cyclopenta[a]phenanthren-17-yl)pentanoic acid]						34	52.5	36.8	6		
